Where a SMILES comes first, the peptide text is derived from it. Bridges are numbered along the chain shown (N, C = ends). [ ]: non-standard residue; d: D form.
Tests used:
[1] = biological target: T1, sLRP1-CIV (Homo sapiens, UniProt Q07954); test: Biacore (SPR) binding to immobilized sLRP1-CIV; conditions: peptides at 20 μM
T1 construct: purchased R&D Systems, USA
Description: The interaction of the beta hairpin peptides with soluble fragments of the LRP1 receptor was studied by Surface Plasmon Resonance (SPR), using a Biacore X unit. In this technique, one of the interaction partners to be studied is immobilized on the surface of a chip, and the other interaction partner is dissolved in a solution that runs through the measurement cell on top of the interaction surface, under conditions of controlled flow. The association and dissociation of interacting partners is measured in resonance units (RU) and plotted, as a function of time, on charts known as ‘sensorgrams’. SPR, therefore, enables the experimenter to obtain detailed information about the interaction without having to label either interaction partner.
In this example, one channel of a CM5 chip (GE Healthcare, USA) was used to immobilize protein sLRP1-CIV on its surface at high density (see Table 6) and recombinant Human Serum Albumin (rHSA, Sigma-Aldrich, USA) was immobilized on the other channel.
Although it was decided to immobilize sLRP1-CIV at high density because these conditions make easier the detection of any potential interactions with compounds whose molecular weight is lower than that of average proteins (such as the peptides this experiment is intended to study), it must be stressed that in high-density surfaces, mass transfer limitations and the possibility of multivalent binding make difficult the accurate determination of kinetic constants. Therefore, and in order to characterize in greater detail the sLRP1-CIV binding surface, different RAP dilutions (0.6-20 μM) were loaded, and RU were registered under conditions of interaction equilibria (250 sec, see FIG. 13B). […] The data also indicate that immobilized sLRP1-CIV faithfully reproduces the previously reported characteristics of the LRP1-RAP interaction.
The binding of beta hairpin peptides to sLRP1-CIV was studied by loading 20 μM dilutions in running buffer of the different peptide variants onto the sLRP1-CIV chip characterized above. The high strength of the resulting signals is consistent with the binding of aggregated, rather than monomeric forms of the peptides. Therefore, the observed variations between different peptides may reflect either differences in the affinity of unitary peptide interactions or differences in aggregation numbers and/or geometries that lead to variations in the number of peptide units able to simultaneously engage immobilized sLRP1-CIV molecules in a multivalent manner. […] The difference between peptides HDIII3CL2 and HDIII3CL is that the former has an additional C-terminal lysine and has, therefore, a stronger cationic character, which may facilitate additional electrostatic interactions with the negatively charged LRP1 receptor.

[2] = test system: DENV serotype 2 (NIBSC code S16803); test: Plaque reduction assay in Vero cells, DENV2; format: cell-based, Dengue virus; conditions: DENV2, plaque reduction; NA = no detectable activity at concentrations lower than or equal to 100 μM; read-out: IC50, antiviral activity in Vero cells (50% inhibitory activity)
Description: The cells were grown in 24 well plates until the monolayer reached approximately 90% confluence, after which they were washed twice with MEM medium without Fetal Bovine Serum (FBS). Then, peptide dilutions were added and the cell-peptide mixtures were incubated typically for 1 hour at 37° C., followed by the addition of a DENV serotype 2 preparation (NIBSC code S16803) at a multiplicity of infection (m.o.i.) of 0.001. The cells were then incubated for 1 hour at 37° C., and once the period of incubation with the viral inoculum concluded, were washed again to remove unbound virions and incubated for 5 days at 37° C. in high density medium (MEM supplemented with non-essential amino acids, 1% FBS, 1% carboxymethylcellulose) in order to let viral plaques form. Afterwards, the cells were stained with 0.1% Naphtol Blue Black in 0.15 M sodium acetate. Two replicates per experimental point were used in each assay, and three independent determinations were performed for each sample.
Next, it was decided to compare the antiviral activity of peptides PHB4 and HDIII3CL against all four DENV serotypes, with the objective of comparing their respective IC50 values. This comparison was performed with plaque reduction assays on Vero cells, adding the viral inoculum for each serotype (DENV1, NIBSC code West Pac 74, DENV2, NIBSC, code S16803; DENV3, NIBSC, code CH53489; DENV 4, NIBSC code TVP360) at a m.o.i. of 0.001.

[3] = Toxicity in Vero cells (MTT assay and manual cell counting); format: cell-based; conditions: ‡ non toxic at 1000 μM, read-out: Ctox50
Description: (§1) The toxicity of the beta hairpin peptides was assessed with the MTT (3-(4,5-dimethylthiazol-2-yl)-2,5-diphenyltetrazolium bromide, Invitrogen, USA) assay (Mosmann, T. (1983). J. Immunol. Methods 65, 55-63.), and by manual cell counting using a Neubauer chamber. Ninety-six well plates (Costar, USA) were seeded with 200 μL/well of a suspension containing Vero cells at 1×10^5 cells/mL and incubated until the monolayers reached approximately 90% confluence, typically for 18-24 h. After washing the cells twice with DMEM (Dulbecco's Modified Eagle Medium) medium, 50 μL/well were added of the peptide or additive dilutions to be evaluated (Triton ^X-100™ dissolved in PBS was used as positive toxicity control) and the plates were incubated at 37° C. under a 5% CO2 atmosphere for 2 or 24 h. Two different procedures were then employed to measure toxicity: • a) A 2 mg/mL solution of MTT in PBS was added (50 μL/well) and the plates were incubated for further 4 h at 37° C., 5% CO2. The medium was then removed, and 100 μL/well of DMSO were then added to solubilize formazan precipitates. Finally, the optical density (OD) of the supernatants at a wavelength of 540 nm was measured using a plate reader (Sensident Scan™, Merck, Germany). • b) The plates were washed with 200 μL/well of DMEM medium and then a trypsin solution (Sigma, USA) was added at 50 μL/well. After inactivating the trypsin by adding 150 μL/well of DMEM supplemented with 10% FBS, the cells were counted using the Trypan Blue (Gibco, USA) vital stain. The data were processed using the statistical software package Prism v5.3 (GraphPad, USA), using non-linear regression to fit them to a log10 (concentration) vs response curve.

[4] = test system: Vero cells; test: as above; format: cell-based; conditions: ‡ non toxic at 1000 μM
Description: as §1

| Molecule | Binding to sLRP1-CIV by SPR, in words [1] | IC50 [2] | CC50 [3] | Ctox50 [4] |
| --- | --- | --- | --- | --- |
| HDIII3CLC- | at most marginal interaction | – | – | – |
| CC(C)[C@@H]1NC(=O)[C@H](CCCCN)NC(=O)[C@H](Cc2c[nH]c3ccccc23)NC(=O)[C@H](CCCCN)NC(=O)[C@H]2CCCN2C(=O)[C@H](CCCNC(=N)N)NC(=O)[C@H]([C@@H](C)O)NC(=O)[C@H](Cc2c[nH]c3ccccc23)NC(=O)[C@H](Cc2ccc(O)cc2)NC(=O)[C@H](C(C)C)NC(=O)[C@@H](N)CSSC[C@@H](C(=O)N[C@@H](CCCCN)C(=O)N[C@@H](CCCCN)C(=O)N[C@@H](CCCCN)C(N)=O)NC(=O)[C@H](Cc2c[nH]c3ccccc23)NC(=O)[C@H](CC(N)=O)NC1=O [PHB2] (H-CVYWTR[dP]KWKVNWCKKK-NH2; disulfide 1-14) | – | 12 µM | 85 µM | – |
| CC[C@H](C)[C@@H]1NC(=O)[C@H](Cc2ccccc2)NC(=O)[C@H](Cc2c[nH]c3ccccc23)NC(=O)[C@H](CC(N)=O)NC(=O)[C@H](C(C)C)NC(=O)[C@H](CCCCN)NC(=O)[C@H](CCCCN)NC(=O)[C@H](CC(=O)O)NC(=O)[C@H]2CCCN2C(=O)[C@H](CCC(=O)O)NC(=O)[C@H]([C@@H](C)O)NC(=O)[C@H](Cc2c[nH]c3ccccc23)NC(=O)[C@H](CC(N)=O)NC(=O)[C@H](C(C)C)NC(=O)[C@H](CCC(=O)O)NC(=O)[C@H]([C@@H](C)CC)NC(=O)[C@@H](N)CSSC[C@@H](C(=O)N[C@@H](CCCCN)C(=O)N[C@@H](CCCCN)C(=O)N[C@@H](CCCCN)C(N)=O)NC1=O [PHB3] (H-CIEVNWTE[dP]DKKVNWFICKKK-NH2; disulfide 1-18) | – | 17 µM | – | >>1000^‡ μM |
| HDIII3CLW- | detectable specific binding | – | – | – |
| CC(C)[C@H](NC(=O)[C@H](CC(N)=O)NC(=O)[C@H](Cc1c[nH]c2ccccc12)NC(=O)[C@@H](NC(=O)[C@H](Cc1c[nH]c2ccccc12)NC(=O)[C@H](CCCCN)NC(=O)[C@H](CC(N)=O)NC(=O)[C@@H](CCCCN)NC(=O)[C@H](CCC(=O)O)NC(=O)[C@H](Cc1c[nH]c2ccccc12)NC(=O)[C@H](CCCCN)NC(=O)[C@H](Cc1c[nH]c2ccccc12)NC(=O)[C@H](CC(N)=O)NC(=O)[C@H](Cc1c[nH]c2ccccc12)NC(=O)[C@@H](N)Cc1ccccc1)[C@@H](C)O)C(=O)N[C@@H](CCC(=O)O)C(=O)NCC(=O)NCC(=O)N[C@@H](CCCCN)C(=O)N[C@@H](CCCCN)C(=O)N[C@@H](CCCCN)C(N)=O [PHB5] (H-FWNWKWE[dK]NKWTWNVEGGKKK-NH2) | – | 17 µM | 259 µM | – |
| CC[C@H](C)[C@@H]1NC(=O)[C@H](Cc2ccccc2)NC(=O)[C@H](Cc2c[nH]c3ccccc23)NC(=O)[C@H](CC(N)=O)NC(=O)[C@H](Cc2ccc(O)cc2)NC(=O)[C@H](CCCCN)NC(=O)[C@H](CCCCN)NC(=O)CNC(=O)[C@H](CC(N)=O)NC(=O)[C@H]([C@@H](C)CC)NC(=O)[C@H]([C@@H](C)O)NC(=O)[C@H](C(C)C)NC(=O)[C@H](CC(N)=O)NC(=O)[C@H](C(C)C)NC(=O)[C@H](CCC(=O)O)NC(=O)[C@H]([C@@H](C)CC)NC(=O)[C@@H](N)CSSC[C@@H](C(=O)N[C@@H](CCCCN)C(=O)N[C@@H](CCCCN)C(=O)N[C@@H](CCCCN)C(N)=O)NC1=O [PHB8] (H-CIEVNVTINGKKYNWFICKKK-NH2; disulfide 1-18) | – | 15 µM | 300 µM | – |
| CC[C@H](C)[C@@H]1NC(=O)[C@H](Cc2ccccc2)NC(=O)[C@H](Cc2c[nH]c3ccccc23)NC(=O)[C@H](CC(N)=O)NC(=O)[C@H](Cc2ccc(O)cc2)NC(=O)[C@H](CCCCN)NC(=O)[C@H](CCCCN)NC(=O)CNC(=O)[C@H](CC(N)=O)NC(=O)[C@H]([C@@H](C)CC)NC(=O)[C@H]([C@@H](C)O)NC(=O)[C@H](C(C)C)NC(=O)[C@H](Cc2ccc(O)cc2)NC(=O)[C@H](C(C)C)NC(=O)[C@H](CCC(=O)O)NC(=O)[C@H]([C@@H](C)CC)NC(=O)[C@@H](N)CSSC[C@@H](C(=O)N[C@@H](CCCCN)C(=O)N[C@@H](CCCCN)C(=O)N[C@@H](CCCCN)C(N)=O)NC1=O [PHB9] (H-CIEVYVTINGKKYNWFICKKK-NH2; disulfide 1-18) | – | 7 µM | 216 µM | – |
| CC[C@H](C)[C@@H]1NC(=O)CNC(=O)[C@H]([C@@H](C)CC)NC(=O)[C@H](C(C)C)NC(=O)[C@H]([C@@H](C)CC)NC(=O)[C@H](CC(N)=O)NC(=O)[C@H](CO)NC(=O)[C@@H](N)CSSC[C@@H](C(=O)N[C@@H](CCCCN)C(=O)N[C@@H](CCCCN)C(=O)N[C@@H](CCCCN)C(N)=O)NC(=O)[C@H](Cc2c[nH]c3ccccc23)NC(=O)[C@H](CC(N)=O)NC(=O)[C@H]([C@@H](C)CC)NC(=O)[C@H](CCCCN)NC(=O)[C@H](CC(C)C)NC(=O)[C@H](C)NC(=O)[C@H](CCCCN)NC(=O)[C@H](CC(=O)O)NC(=O)CNC1=O [HDIII3CL2, reference compound] (H-CSNIVIGIGDKALKINWCKKK-NH2; disulfide 1-18) | – | 20 µM | 1000 µM | – |
| CC[C@H](C)[C@@H]1NC(=O)[C@H]([C@@H](C)O)NC(=O)[C@H](C(C)C)NC(=O)[C@H](CC(N)=O)NC(=O)[C@H](C(C)C)NC(=O)[C@@H](N)CSSC[C@@H](C(=O)N[C@@H](CCCCN)C(=O)N[C@@H](CCCCN)C(=O)N[C@@H](CCCCN)C(N)=O)NC(=O)[C@H](Cc2c[nH]c3ccccc23)NC(=O)[C@H](CC(N)=O)NC(=O)[C@H](Cc2ccc(O)cc2)NC(=O)[C@H](CCCCN)NC(=O)[C@H](CCCCN)NC(=O)CNC(=O)[C@H](CC(N)=O)NC1=O [PHB7] (H-CVNVTINGKKYNWCKKK-NH2; disulfide 1-14) | – | 79 µM | 1910 µM | – |
| CC(C)[C@H](NC(=O)[C@H](CC(N)=O)NC(=O)[C@H](Cc1c[nH]c2ccccc12)NC(=O)[C@@H](NC(=O)[C@H](Cc1c[nH]c2ccccc12)NC(=O)[C@H](CCCCN)NC(=O)[C@H](CC(N)=O)NC(=O)[C@H]1CCCN1C(=O)[C@H](CCC(=O)O)NC(=O)[C@H](Cc1c[nH]c2ccccc12)NC(=O)[C@H](CCCCN)NC(=O)[C@H](Cc1c[nH]c2ccccc12)NC(=O)[C@H](CC(N)=O)NC(=O)[C@H](Cc1c[nH]c2ccccc12)NC(=O)[C@@H](N)Cc1ccccc1)[C@@H](C)O)C(=O)N[C@@H](CCC(=O)O)C(=O)NCC(=O)NCC(=O)N[C@@H](CCCCN)C(=O)N[C@@H](CCCCN)C(=O)N[C@@H](CCCCN)C(N)=O [PHB6] (H-FWNWKWE[dP]NKWTWNVEGGKKK-NH2) | – | 33 µM | 411 µM | – |
| HDIII3CLK- | detectable specific binding | – | – | – |

Reference: patent publication US9896482B2, “Beta hairpin peptides having antiviral properties against Dengue virus” (CENTRO DE INGENIERÍA GENÉTICA Y BIOTECNOLOGÍA, priority 2014, dated 2018)
